Test results reported in paper PMC4810398, “Protein-Flavonoid Interaction Studies by a Taylor Dispersion Surface Plasmon Resonance (SPR) Technique: A Novel Method to Assess Biomolecular Interactions” (Biosensors, 2016).
Where “and” joins values, the source holds several entries; their conditions need not be identical. Equal values may be shown once. Read-outs that look alike come from different tables or passages of the source. Values belong to the compound of their own block, whether it stands above or below them.

Assays:
[1] = target: T1, human serum albumin (HSA) (Homo sapiens, UniProt P02768); assay: Taylor dispersion (OneStep) SPR, kinetic analysis of flavonoids on immobilized HSA; assay type: binding; conditions: for kon / koff: pH 7.4, HSA
T1 construct: purchased Sigma Aldrich
T1 sequence (P02768 25-609): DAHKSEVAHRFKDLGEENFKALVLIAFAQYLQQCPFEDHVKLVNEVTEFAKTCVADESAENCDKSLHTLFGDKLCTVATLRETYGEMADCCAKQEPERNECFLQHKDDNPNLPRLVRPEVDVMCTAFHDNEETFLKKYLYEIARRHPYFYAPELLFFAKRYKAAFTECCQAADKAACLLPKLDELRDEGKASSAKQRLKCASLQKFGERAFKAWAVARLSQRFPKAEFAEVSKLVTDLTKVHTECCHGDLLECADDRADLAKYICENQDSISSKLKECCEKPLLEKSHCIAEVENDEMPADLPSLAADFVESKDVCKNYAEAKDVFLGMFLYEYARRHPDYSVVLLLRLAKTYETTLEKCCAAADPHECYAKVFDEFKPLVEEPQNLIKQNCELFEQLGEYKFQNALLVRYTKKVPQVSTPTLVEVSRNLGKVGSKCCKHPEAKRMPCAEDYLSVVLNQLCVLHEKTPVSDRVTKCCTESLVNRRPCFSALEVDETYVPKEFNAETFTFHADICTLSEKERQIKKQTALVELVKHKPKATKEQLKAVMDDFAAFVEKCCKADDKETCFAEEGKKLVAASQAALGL
Method: (§1) Hydroxyl-gel modified sensor chips and coupling reagents for the Pioneer SPR instrument (SensiQ Technologies, Oklahoma City, OK, USA) were obtained from Xantec (Duesseldorf, Germany). […] All analyses were performed at 25 °C. 10 mM HEPES (pH 7.4) with 150 mM NaCl, 0.005% Tween-20, 1.26 mM EDTA, and 5% DMSO was used as the running buffer.
(§2) HSA (essentially fatty acid free; Sigma Aldrich, St. Louis, MO, USA) and GSTP1 (Fitzgerald Industries International, North Acton, MA, USA) (50 μg/mL in 10 mM sodium acetate, pH 5.0) were immobilized on polycarboxylate hydrogel sensor chip surfaces using a standard amine-coupling protocol (flow rate of 10 μL/min) to obtain a density of 10–12 kRU [18]. Each of the four flavonoids was dissolved in DMSO to achieve a high concentration, then further diluted to a final 5% DMSO concentration in running buffer. Typically, the flavonoid concentration series spanned 0.01–500 μM. Five blanks were analyzed at the beginning of the analysis, and the remaining blanks were randomly injected throughout the analysis for double-referencing purposes.
(§3) In this study, we explored the SensiQ Pioneer’s dynamic SPR capability (also known as the OneStep® injection method), which is essentially a Taylor dispersion to create a gradient injection to quantify biomolecular interactions. In the Taylor dispersion method, analyte concentration is initially uniform, but it gradually changes into a sigmoidal gradient due to the combined actions of analyte diffusion and convective laminar flow within the dispersion capillary. This method saves sample preparation time, lessens the need for limited-supply sample materials, and eliminates possible human errors in the preparation of sample dilutions. Since the compounds are screened over a broader dilution range, content-rich data can be obtained from the preliminary screening step itself, and oftentimes, secondary screening can be avoided. A Taylor dispersion gradient injection of sucrose (3% w/v in running buffer) was performed in parallel as a diffusion standard to account for experimental deviations such as buffer viscosity, flow rate, temperature, etc. The analytes were injected in running buffer using the same Taylor diffusion gradient injection mode with a flow rate of 25 μL/min.
(§4) SPR response data (sensorgrams) were zeroed at the beginning of each injection and double referenced. For kinetic analyses, the responses were plotted against the analyte concentration and fit to a 1:1 (A + B = AB) or 1:2 (A + 2B = AB1 + AB2) binding model using Qdat analysis software (SensiQ Technologies, Inc., Oklahoma City, OK, USA) and GraphPad Prism 5.04 (GraphPad Software Inc., La Jolla, CA, USA).

[2] = target: T2, glutathione S-transferase pi isoform-1 (GSTP1) (Homo sapiens, UniProt P09211); assay: Taylor dispersion (OneStep) SPR, equilibrium analysis of flavonoids on immobilized GSTP1; conditions: GSTP1, one binding site, 1:1 equilibrium analysis model, 25 °C
T2 construct: purchased Fitzgerald Industries International
T2 sequence (P09211 whole entry, canonical isoform): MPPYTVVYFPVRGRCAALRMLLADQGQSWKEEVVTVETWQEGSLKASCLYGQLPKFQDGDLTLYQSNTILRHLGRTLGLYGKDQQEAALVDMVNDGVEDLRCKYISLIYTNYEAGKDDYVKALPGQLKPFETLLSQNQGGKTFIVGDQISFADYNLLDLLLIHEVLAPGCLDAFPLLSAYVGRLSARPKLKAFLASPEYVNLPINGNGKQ
Method: as §1, §2, §3
as §4, with “USA). […]” for “USA).”

[3] = target: T1, human serum albumin (HSA); assay: Conventional (standard fixed-concentration injection) SPR, HSA-quercetin validation; assay type: binding
Method: as §1, §2
For assay validation, a conventional SPR method was used as a comparison. The interaction of HSA with quercetin was chosen for validation. For the conventional SPR method, analyte dilutions were prepared manually in a twofold dilution series starting with 500 μM as the highest concentration. […]

[4] = HSA, Site 1, 25 °C, OneStep SPR, global kinetic fit (1:2 model; kaempferol 1:1), read-out: KD (equilibrium dissociation constant), Site 1
[5] = human, Site 1, 25 °C, OneStep SPR, global kinetic fit (1:2 model; kaempferol 1:1), read-out: ka (association rate constant), Site 1
[6] = human, Site 1, 25 °C, OneStep SPR, global kinetic fit (1:2 model; kaempferol 1:1), read-out: kd (dissociation rate constant), Site 1
[7] = human, Site 2, 25 °C, OneStep SPR, 1:2 model, read-out: ka (association rate constant), Site 2
[8] = human, Site 2, 25 °C, OneStep SPR, 1:2 model, read-out: kd (dissociation rate constant), Site 2

- Kd [1, 4]: 0.037 µM
- kon [1, 5]: 48400 ± 6e+06 M⁻¹ s⁻¹
- koff [1, 6]: 0.002 ± 0.002 s⁻¹
- Kd [2]: 45 ± 0.2 µM
Structure (SMILES): O=c1c(O)c(-c2ccc(O)cc2)oc2cc(O)cc(O)c12 [Kaempferol, kaempferol]

Structure (SMILES): O=c1cc(-c2ccc(O)c(O)c2)oc2cc(O)cc(O)c12 [Luteolin, luteolin]
- Kd [1, 4]: 63.4 µM
- Kd ([1]; human, pH 7.4): 406 µM
- kon [1, 5]: 3200 ± 300000 M⁻¹ s⁻¹
- koff [1, 6]: 0.205 ± 0.005 s⁻¹
- kon [1, 7]: 17.1 ± 1 M⁻¹ s⁻¹
- koff [1, 8]: 0.007 ± 0.001 s⁻¹
- Kd [2]: 31.5 ± 0.2 µM

Structure (SMILES): O=c1c(O)c(-c2ccc(O)c(O)c2)oc2cc(O)cc(O)c12 [Quercetin, quercetin]
- Kd [1, 4]: 0.063 µM
- Kd ([1]; human, pH 7.4): > 500 µM
- kon [1, 5]: 240000 ± 1e+08 M⁻¹ s⁻¹
- koff [1, 6]: 0.016 ± 0.003 s⁻¹
- kon [1, 7]: 100 ± 1000 M⁻¹ s⁻¹
- koff [1, 8]: 0.405 ± 0.004 s⁻¹
- Kd ([3]; HSA, conventional SPR, two fold dilution series from 500 μM, quadruplicate, 1:2 model, read-out: KD1 (affinity towards HSA)): 0.068 ± 0.002 µM
- Kd ([3]; human, pH 7.4): > 500 µM
- Kd [2]: ~27.5 µM and 27.5 µM

Structure (SMILES): Oc1ccc(/C=C/c2cc(O)cc(O)c2)cc1 [Resveratrol, resveratrol]
- Kd [1, 4]: 0.4 µM
- Kd ([1]; human, pH 7.4): 180 µM
- kon [1, 5]: 7000 ± 200000 M⁻¹ s⁻¹
- koff [1, 6]: 0.003 ± 0.002 s⁻¹
- kon [1, 7]: 2900 ± 600000 M⁻¹ s⁻¹
- koff [1, 8]: 0.52 ± 0.003 s⁻¹
- Kd [2]: 78 ± 0.1 µM
